This is an account of results in patent US20250127800A1, “PYRIMIDINE OR PYRIDINE DERIVATIVE AND MEDICINAL USE THEREOF” (SIGNET THERAPEUTICS INC., priority 2021, published 2025).

One may read the IC50 as the concentration that gives 50% inhibition. A higher IC50 goes with weaker potency. Usually AUC(0-inf) stands for total exposure, with the tail of the curve extrapolated. Read a high AUC(0-inf) as more exposure. For orientation: AUC(0-t) means exposure summed from dosing to a finite time, without extrapolation to infinity. Read a high AUC(0-t) as high exposure. What is called Cmax is the maximum level reached in the sampled fluid or tissue. As usually defined, the Tmax is the time from dosing to the highest level. For orientation: half-life means the time needed for the level to fall by half in the phase considered. The low end stands for fast loss, the high end for slow loss.

Like-named read-outs stand apart in the source and are kept apart here.

In one series the target is FAK (Homo sapiens (Human), UniProt Q05397). Briefly: In vitro enzymatic inhibitory activity, FAK kinase (HTRF KinEASE-TK).
FAK, sequence (Q05397 whole entry, species assumed): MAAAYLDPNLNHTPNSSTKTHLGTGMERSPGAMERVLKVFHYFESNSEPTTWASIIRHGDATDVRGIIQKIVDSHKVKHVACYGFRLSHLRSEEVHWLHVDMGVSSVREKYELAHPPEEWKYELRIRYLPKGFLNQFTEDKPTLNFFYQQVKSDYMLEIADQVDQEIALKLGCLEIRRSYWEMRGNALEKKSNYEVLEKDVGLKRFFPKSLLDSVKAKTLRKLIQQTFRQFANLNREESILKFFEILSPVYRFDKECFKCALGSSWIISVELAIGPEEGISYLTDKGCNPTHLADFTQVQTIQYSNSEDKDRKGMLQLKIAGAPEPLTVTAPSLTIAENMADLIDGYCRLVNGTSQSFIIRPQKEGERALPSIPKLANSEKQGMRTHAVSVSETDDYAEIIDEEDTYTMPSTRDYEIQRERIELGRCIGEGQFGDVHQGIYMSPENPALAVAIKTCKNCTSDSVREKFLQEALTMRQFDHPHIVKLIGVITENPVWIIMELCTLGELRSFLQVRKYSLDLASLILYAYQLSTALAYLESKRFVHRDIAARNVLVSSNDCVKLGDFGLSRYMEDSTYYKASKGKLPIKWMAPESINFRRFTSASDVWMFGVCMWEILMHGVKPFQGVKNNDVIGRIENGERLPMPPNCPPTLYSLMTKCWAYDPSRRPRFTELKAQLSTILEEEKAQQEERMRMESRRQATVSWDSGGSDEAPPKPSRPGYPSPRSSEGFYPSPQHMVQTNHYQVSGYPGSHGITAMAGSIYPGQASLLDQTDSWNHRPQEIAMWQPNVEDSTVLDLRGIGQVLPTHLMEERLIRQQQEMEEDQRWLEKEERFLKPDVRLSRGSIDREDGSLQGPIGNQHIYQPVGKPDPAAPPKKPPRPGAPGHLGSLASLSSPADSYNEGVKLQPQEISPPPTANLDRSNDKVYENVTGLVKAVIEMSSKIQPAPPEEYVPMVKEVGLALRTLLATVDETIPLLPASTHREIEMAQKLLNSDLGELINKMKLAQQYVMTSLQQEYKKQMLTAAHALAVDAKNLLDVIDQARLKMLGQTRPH
A further series relates to SNU-668 cells. Kind of series: Cell proliferation inhibition, SNU-668 (CELL TITER-GLO). It counts as cell-based. Conditions: Homo sapiens, SNU668, 96 h; SNU-668, 4 days. As to the method: (§1) • a. SNU-668 cells (catalog number: 00668, KCLB) or NUGC4 cells (catalog number: 0834, JCRB) were allowed to grow to 70%-80% confluence, the supernatant of the culture medium was pipetitted off, rinsed once with PBS and then pipetitted off; • b. To a 10 cm dish was added 1 mL of 0.25% trypsin, votexed to homogenity and then place into incubator for digestion for 2-3 min; • c. The culture dish is removed from the incubator added with 2-3 mL complete culture medium to terminate the digestion, pipetitted into a 15 mL centrifuge tube, and then centrifuged in centrifuge at 1000 rpm for 5 minutes; • d. The supernatant was pipetitted off, and the cells were resuspended in 1 mL of complete culture medium, and then counted; • e. 1000 cells were plated into each well of 96-well plate, and then cultured overnight in a cell incubator, 2) Cell Administration with Compounds • a. Compounds to be tested were dissolved and votexed to homogeneity; • b. Each compound was serielly diluted in 1:3 ratio from 1 mM stock solution to 9 gradient concentrations; • c. The plate seeded with cells was taken out from the incubator, pipetitted off culture medium, and then added slowly in each well with 100 μL fresh culture medium by multi-channel pipette. Wells are labeled by corresponding compounds and concentrations, and then gently added with 100 μL compound-containing culture medium along the well wall by multi-channel pipette; • d. After the addition to all wells, the plate was gently shaken to allow homogeneous spread of the compound, and then put back to the incubator, with time recorded;
(§2) 4 days after the addition of compounds, the culture medium was removed and mixed at 100 μL from each well with cell titer-glo testing liquid in 1:1 ratio. The mixture was incubated with shaking at room temperature for 10 min and then counted with Plate reader.
On the technique in general: Cellular ATP, detected with luciferase, serves as a proxy for viable cell number.

The next series has as its system NUGC4 cells. Kind of series: Cell proliferation inhibition, NUGC4 (CELL TITER-GLO). Particulars: Homo sapiens, NUGC-4, 96 h; NUGC4, 4 days. It counts as cell-based. On the procedure:
as §1, §2

Series [1] is described as follows: In vivo pharmacokinetic evaluation in SD rats, gavage. Particulars: rat, plasma, po, male SD rats. As to the method: Three male SD rats were administered with compounds in a single dose of 5 mg/kg or 3 mg/kg by gavage, and blood samples were collected before administration and at 0.25, 0.5, 1, 2, 4, 6, 8, and 24 h after administration.
Preparation of solutions of compounds to be dosed at 5 mg/kg: 5.5 mg compound (converted based on purity) was accurately weighed and added to 0.55 mL of DMSO. Clear solutions were obtained after stirring and sonication. 0.5 mL of each of the above solutions was added with 1 mL of Solutol, stirred for 1 minute; and then added with 8.5 mL of physiological saline and stirred for 1 minute, to obtain a clear solution at 0.5 mg/mL concentration.
Preparation of a solution of compounds to be dosed at 3 mg/kg: 3.6 mg compound (converted according to purity) was accurately weighed and added to 0.6 mL of DMSO. Clear solutions were obtained after stirring and sonication. 0.5 mL of each of the above solutions was added with 1 mL of Solutol and stirred for 1 minute; and then added with 8.5 mL of physiological saline and stirred for 1 minute, to obtain a clear solution at 0.3 mg/mL concentration.
Rats were administered the formulations prepared in step 2 by gavage at a dose of 10 mL/kg. The rats were fasted overnight before the administration and resumed feeding 4 hours after administration. Throughout the entire experiment, the animals were free to access drinking water.
The plasma concentration was measured using LC-MS/MS method.

Where [2] appears, read: FAK kinase, enzyme pre-incubation 15 minutes at 25° C.

With `C=CC(=O)N1CCC(NC(=O)c2ccc(Nc3ncc(C(F)(F)F)c(NCc4nccnc4N(C)S(C)(=O)=O)n3)c(OC)c2)CC1` [Compound 1, N-(1-acryloylpiperidin-4-yl)-3-methoxy-4-((4-(((3-(N-methylmethanesulfonylamido)pyrazin-2-yl)methyl)amino)-5-(trifluoromethyl)pyrimidin-2-yl)amino)benzamide], at FAK (setting [2]), the concentration for half-maximal inhibition (IC50) stood at 1.13 nM.

`C=CC(=O)N1CCC(CNC(=O)c2ccc(Nc3ncc(C(F)(F)F)c(Nc4ccccc4P(C)(C)=O)n3)cc2)CC1` [Compound 7, N-((1-acryloylpiperidin-4-yl)methyl)-4-((4-((2-(dimethylphosphoryl)phenyl)amino)-5-(trifluoromethyl)pyrimidin-2-yl)amino)benzamide] yielded an IC50 at FAK (setting [2]) of 3.58 nM.

On to `C=CC(=O)N1CCC(CNC(=O)c2ccc(Nc3ncc(C(F)(F)F)c(Nc4ccccc4P(C)(C)=O)n3)c(OC)c2)CC1` [Compound 8, N-((1-acryloylpiperidin-4-yl)methyl)-4-((4-((2-(dimethylphosphoryl)phenyl)amino)-5-(trifluoromethyl)pyrimidin-2-yl)amino)-3-methoxybenzamide], for which, on FAK (setting [2]), the IC50 stood at 5.79 nM.

With `C=CC(=O)N1CCCC(c2cccc(NCc3ccc(Nc4ncc(C(F)(F)F)c(Nc5ccccc5P(C)(C)=O)n4)cc3)c2)C1` (stereo not drawn) [Compound 10, 1-(3-(3-((4-((4-((2-(dimethylphosphoryl)phenyl)amino)-5-(trifluoromethyl)pyrimidin-2-yl)amino)benzyl)amino)phenyl)piperidin-1-yl)prop-2-en-1-one], the IC50 on FAK (setting [2]) was determined as 15.8 nM.

On FAK (setting [2]), `C=CC(=O)N1CCCC(c2cccc(NCc3ccc(Nc4ncc(C(F)(F)F)c(NCc5nccnc5N(C)S(C)(=O)=O)n4)cc3)c2)C1` (stereo not drawn) [Compound 14, N-(3-(((2-((4-(((3-(1-acryloylpiperidin-3-yl)phenyl)amino)methyl)phenyl)amino)-5-(trifluoromethyl)pyrimidin-4-yl)amino)methyl)pyrazin-2-yl)-N-methylmethanesulfonamide] gave a half-maximal inhibitory concentration (IC50) of 4.36 nM.

Consider `C=CC(=O)N1CCCC(c2cccc(NCc3ccc(Nc4ncc(Cl)c(Nc5ccccc5C(=O)NC)n4)cc3)c2)C1` (stereo not drawn) [Compound 15], for which the concentration for half-maximal inhibition (IC50) in the series on SNU-668 cells was 110 nM.

Consider `C=CC(=O)N1CCCC(c2cccc(NCc3ccc(Nc4ncc(Br)c(Nc5ccccc5C(=O)NC)n4)cc3)c2)C1` (stereo not drawn) [Compound 16, 2-((2-((4-(((3-(1-acryloylpiperidin-3-yl)phenyl)amino)methyl)phenyl)amino)-5-bromopyrimidin-4-yl)amino)-N-methylbenzamide], for which the concentration for half-maximal inhibition (IC50) with SNU-668 cells came to 60 nM; at FAK (setting [2]) it was 6.73 nM.

With `C=CC(=O)N1CCCC(c2cccc(NCc3ccc(Nc4ncc(C(F)(F)F)c(Nc5ccccc5C(=O)NCC)n4)cc3)c2)C1` (stereo not drawn) [Compound 17, 2-((2-((4-(((3-(1-acryloylpiperidin-3-yl)phenyl)amino)methyl)phenyl)amino)-5-(trifluoromethyl)pyrimidin-4-yl)amino)-N-ethylbenzamide], the IC50 was below 10 nM in the series with SNU-668 cells and 6.13 nM against FAK (setting [2]).

Regarding `C=CC(=O)N1CCCC(c2cccc(NCc3ccc(Nc4ncc(C(F)(F)F)c(Nc5ccccc5C(=O)NC(C)C)n4)cc3)c2)C1` (stereo not drawn) [Compound 18, 2-((2-((4-(((3-(1-acryloylpiperidin-3-yl)phenyl)amino)methyl)phenyl)amino)-5-(trifluoromethyl)pyrimidin-4-yl)amino)-N-isopropylbenzamide], the IC50 in the series with SNU-668 cells came out at 140 nM; against FAK (setting [2]) it was 17.9 nM.

As for `C=CC(=O)N1CCCC(c2cccc(NCc3ccc(Nc4ncc(C(F)(F)F)c(Nc5cccc6c5C(=O)N(C)C6)n4)cc3)c2)C1` (stereo not drawn) [Compound 20, 7-((2-((4-(((3-(1-acryloylpiperidin-3-yl)phenyl)amino)methyl)phenyl)amino)-5-(trifluoromethyl)pyrimidin-4-yl)amino)-2-methylisoindolin-1-one], the results for the IC50 in the series on NUGC4 cells and on FAK (setting [2]) were 340 nM and 4.98 nM, respectively.

With `CC#CC(=O)N1CCCC(c2cccc(NCc3ccc(Nc4ncc(C(F)(F)F)c(Nc5ccccc5C(=O)NC)n4)cc3)c2)C1` (stereo not drawn) [Compound 21, 2-((2-((4-(((3-(1-(2-butynoyl)piperidin-3-yl)phenyl)amino)methyl)phenyl)amino)-5-(trifluoromethyl)pyrimidin-4-yl)amino)-N-methylbenzamide], the IC50 is 40 nM in the series with NUGC4 cells and 4.33 nM at FAK (setting [2]).

`C=C(C)C(=O)N1CCCC(c2cccc(NCc3ccc(Nc4ncc(C(F)(F)F)c(Nc5ccccc5C(=O)NC)n4)cc3)c2)C1` (stereo not drawn) [Compound 24, 2-((2-((4-(((3-(1-methylacryloylpiperidin-3-yl)phenyl)amino)methyl)phenyl)amino)-5-(trifluoromethyl)pyrimidin-4-yl)amino)-N-methylbenzamide]: in the series on NUGC4 cells, the concentration for half-maximal inhibition (IC50) turned out to be 20 nM.

Consider `C/C=C/C(=O)N1CCCC(c2cccc(NCc3ccc(Nc4ncc(C(F)(F)F)c(Nc5ccccc5C(=O)NC)n4)cc3)c2)C1` (stereo not drawn) [Compound 32, (E)-2-((2-((4-(((3-(1-(but-2-enoyl)piperidin-3-yl)phenyl)amino)methyl)phenyl)amino)-5-(trifluoromethyl)pyrimidin-4-yl)amino)-N-methylbenzamide], for which the values for the concentration for half-maximal inhibition (IC50) in the series on NUGC4 cells and at FAK (setting [2]) were 40 nM and 3.43 nM, respectively.

Consider `C=C(F)C(=O)N1CCCC(c2cccc(NCc3ccc(Nc4ncc(C(F)(F)F)c(Nc5ccccc5C(=O)NC)n4)cc3)c2)C1` (stereo not drawn) [Compound 33, 2-((2-((4-(((3-(1-(2-fluoroacryloyl)piperidin-3-yl)phenyl)amino)methyl)phenyl)amino)-5-(trifluoromethyl)pyrimidin-4-yl)amino)-N-methylbenzamide], for which it took 20 nM to reach half-maximal inhibition in the series on NUGC4 cells (IC50).

Take `C=CC(=O)N1CCC[C@H](c2cccc(NCc3ccc(Nc4ncc(C(F)(F)F)c(Nc5ccccc5C(=O)NC)n4)cc3)c2)C1` [Compound 34, (R)-2-((2-((4-(((3-(1-acryloylpiperidin-3-yl)phenyl)amino)methyl)phenyl)amino)-5-(trifluoromethyl)pyrimidin-4-yl)amino)-N-methylbenzamide]: the IC50 in the series with NUGC4 cells stood at 80 nM; on FAK (setting [2]) it was 1.27 nM.

`C=CC(=O)N1CCC[C@@H](c2cccc(NCc3ccc(Nc4ncc(C(F)(F)F)c(Nc5ccccc5C(=O)NC)n4)cc3)c2)C1` [Compound 35, (S)-2-((2-((4-(((3-(1-acryloylpiperidin-3-yl)phenyl)amino)methyl)phenyl)amino)-5-(trifluoromethyl)pyrimidin-4-yl)amino)-N-methylbenzamide]: in series [1] (5 mg/kg), the AUC(0-inf) came out at 0.548 µM·h, the area under the curve AUC(0-t) was 0.54 µM·h, the maximum concentration (Cmax) came out at 130 nM and the time to peak (Tmax) was 2.67 h. The same molecule had a half-life in series [1] (5 mg/kg) of 0.96 h. On FAK (setting [2]), this molecule came in with an IC50 of 1.45 nM.

For `C=CC(=O)N1CCC[C@H](c2cccc(NCc3ccc(Nc4ncc(C(F)(F)F)c(Nc5ccccc5C(=O)NOC)n4)cc3)c2)C1` [Compound 36, (R) 2-((2-((4-(((3-(1-acryloylpiperidin-3-yl)phenyl)amino)methyl)phenyl)amino)-5-(trifluoromethyl)pyrimidin-4-yl)amino)-N-methoxybenzamide], in series [1] (3 mg/kg), the AUC(0-inf) turned out to be 0.711 µM·h, the AUC(0-t) amounted to 0.689 µM·h, the Cmax stood at 146 nM and the Tmax worked out at 2.67 h. Moreover, in series [1] (3 mg/kg), the half-life was 1.2 h. For the same molecule, the half-maximal inhibitory concentration (IC50) in the series with NUGC4 cells came out at 90 nM. This molecule also gave an IC50 against FAK (setting [2]) of 0.97 nM.

Regarding `C=CC(=O)N1CCC[C@@H](c2cccc(NCc3ccc(Nc4ncc(C(F)(F)F)c(Nc5ccccc5C(=O)NOC)n4)cc3)c2)C1` [Compound 37, (S) 2-((2-((4-(((3-(1-acryloylpiperidin-3-yl)phenyl)amino)methyl)phenyl)amino)-5-(trifluoromethyl)pyrimidin-4-yl)amino)-N-methoxybenzamide], in series [1] (3 mg/kg), the total exposure AUC(0-inf) was found to be 0.368 µM·h, the AUC(0-t) came out at 0.361 µM·h, the maximum concentration (Cmax) came out at 87.2 nM and the time to peak (Tmax) amounted to 2.67 h. The half-life in series [1] (3 mg/kg) was 1.07 h. Moreover, the midpoint of inhibition in the series with NUGC4 cells, the IC50, lay at 120 nM. This molecule displayed a half-maximal inhibitory concentration (IC50) on FAK of 1.35 nM.
